Source: patent publication US12343397B2, “Drug-resistant immune cells and methods of use thereof” (Regents of the University of Minnesota, priority 2018, dated 2025)

What was measured:
NR3C1 = experiment: Base editing of NR3C1 in Tregs (Sanger sequencing, EditR); format: cell-based, human; settings: Tregs electroporated with base editor mRNA and guide RNA
From the text: Treg cells were base edited by electroporation of the base editor as protein or mRNA encoding said base editor, along with a guide RNA to target bases for editing with said base editor. The genomic DNA of the edited cells was then isolated and the target locus was PCR amplified. The PCR amplified locus was then sequenced by Sanger sequencing. Base conversion was observed by identifying multiple peaks at the target site. The PCR amplicon sequence data then underwent decomposition using the EDITR method to quantify base editing frequency (see, Kluesner et al. “EditR: A novel base editing quantification software using Sanger sequencing”.DOI: 10.1101/213496.2017). For FIGS. 19-22, and 24-27, the base edited sequences are marked by red open boxes.
FIG. 16 depicts a schematic showing base editing wherein the CRISPR deactivated or nicking DNA binding domain is a dCas9, and the base-editing domain is a cytidine deaminase. Base editors can be delivered as RNP complexes whereby the guide RNA may or may not be modified with phosphorothioate bonds to prevent intracellular degradation by endogenous RNAses. […] Further, the sequences at exon:intron boundaries defined as splice donors and acceptors that are required for intron excision and proper open reading frame orientation and expression were also targeted for conversion in order to disrupt splicing. […]

exon 2 of NR3C1 = experiment: Surveyor nuclease assay of NR3C1 gRNA candidates in human primary T-cells; format: cell-based; settings: Cas9 with gRNA
Method: FIGS. 3A-3D depicts the process of gene editing of NR3C1 glucocorticoid receptor by CRISPR guide RNA and Cas9. FIG. 3A depicts a schematic illustrating the process of gene transfer. T cells or Tregs were harvested and activated with CD3/CD28 beads for 48 h (fresh) or 72 h (frozen). The Neon electroporation device was used to deliver Cas9 mRNA or protein with a gene specific guide RNA. FIG. 3B depicts a schematic illustrating NR3C1 gene targeting. Four sites in exon 2 were identified and tested. Four candidates were identified. The candidates were tested using the Surveyor method. FIG. 3C depicts a schematic illustrating the Surveyor assay. Gene modified (“mutant amplicon”) and unmodified (“wild type amplicon”) are hybridized resulting in homo- or heteroduplexes. Heteroduplexes caused by pairing of gene edited and wild type sequences are cleaved by the Surveyor enzyme resulting in predictable DNA fragments.
Using these parameters the use of CRISPR/Cas9 engineering of T-cells was pursued using the experimental schema as shown in FIG. 3A. Human primary T-cells were grown in the presence of IL-2 and activated with CD3/CD28 beads for 48-72 hours. The CRISPR/Cas9 reagents used a guide RNA transcript (Synthego) and recombinant Cas9 peptide (Aldevron) that were delivered using the Neon electroporation device (ThermoFisher). […]

[1] = test system: lethally irradiated BALB/c recipients of C57BL/6 (B6) donor bone marrow + T cells; experiment: Steroid GVHD prophylaxis and therapy in allogeneic BMT recipients; format: in vivo, mouse; settings: for GVHD therapy outcome / survival vs vehicle: 10 mg/kg/day day 3-28, 1.5×10^6 T cells
Method: FIG. 8 depicts steroid dose responses for GVHD prophylaxis in allogeneic BMT recipients. n=8 per group. BALB/c mice were lethally irradiated, given B6 BM+2 M T cells and steroids at the indicated doses from day 1-28. A low rapamycin dose (day 0-14, 3 times a week through day 27) was used as a comparator.
FIG. 9 depicts steroid based GVHD therapy in allogeneic BMT recipients. n=8 per group. BALB/c mice were lethally irradiated, given B6 BM+1.5 M T cells and steroids at 10 mg/kg/day day 3-28 or 4-28 as indicated.
FIG. 10 depicts steroid based GVHD therapy in allogeneic BMT recipients. n=15 (BM-Circles), 16 (Vehicle-Squares) and 25 (Prednisolone-Triangles). BALB/c mice were lethally irradiated, given B6 BM+1.5 M T cells and steroids at 10 mg/kg/day day 3-28.
To test whether gene modified (GR2-CRISPR/Cas9) or gene edited (GR2-CRISPR/Cas9/AAV-CaN mut.) Tregs have increased efficacy in vivo in the presence of glucocorticoid, how glucocorticoid (methyl-prednisolone) effects GVHD in preclinical mouse models was first determined. […] For these reasons, as well as the more logistically feasible and cost effective benefits of an allogeneic GVHD model, optimized steroid use in allogeneic recipients for GVHD prevention and therapy were first tested, and then applied to a xenogeneic model to enable testing of the human Treg product. Using lethally irradiated BALB/c recipients of C57BL/6 (B6) donor bone marrow+2×10^6 T cells, methyl-prednisolone at doses of 1, 3, and 6 mg/kg/dose were tested days 1-28 vs. rapamycin at 0.5 mg/kg/day, days 0-14 then 3×/week through day 27. The T cell dose was reduced to 1.5×10^6 and moved to GVHD therapy beginning on day 3 or day 4 (rather than day 1 prophylaxis) and compared no treatment to vehicle to prednisolone (n=8/group).
Delaying prednisolone treatment until day 4 was ineffective. Next, an experiment was performed to determine whether prednisolone at 10 mg/kg d3-28 was reproducible, and it was observed that this was the case (FIG. 10).

xeno-GVHD model = experiment: Xenogeneic GVHD model (NSG mice given human PBMC); format: in vivo; settings: 30 mg/kg, day 0-28
Method: FIGS. 11A-11D depicts the monitoring of GVHD in mice. Human PBMC (15×10^6) were injected into irradiated (50 rad) NSG mice±methylprednisolone (15 mg/kg), and signs of GVHD were monitored. FIG. 11A depicts a schematic illustration of the experiments indicating cohorts (n=7 mice each), dosing schedule, and analysis points. FIG. 11B depicts Kaplan-Meier survival curves for mice receiving PBMC only, or PBMC+prednisolone (p=0.104). FIG. 11C depicts disease progression monitored by weight loss (p=not significant). FIG. 11D depicts disease progression monitored by quantitating the number of PBMC-derived CD45+, CD4+, CD8+, and CD4+Foxp3+ T cells (p<0.03, <0.05, <0.03, and not significant, respectively). Animals were bled on day 19 for assessment.
FIGS. 12A-12D depicts the monitoring of GVHD in mice. […] FIG. 12B depicts Kaplan-Meier survival curves for mice receiving PBMC only, or PBMC+CNI (PBMC only vs. FK506 (36 mg/kg), p≤0.04). FIG. 12C depicts disease progression monitored by weight loss (p=not significant). FIG. 12D depicts disease progression monitored by quantitating the number of PBMC-derived CD45+, CD4+, CD8+, and CD4+Foxp3+ T cells (p<0.03, <0.05, <0.02, and not significant, respectively). Animals were bled on day 18 for assessment.
A follow up study has shown that xeno-GVHD pathology induced with 200 rad+1×10^7 human PBMC is more reproducible, and median survival is reduced from ˜25 days to ˜20 days.

## GR1: gRNA AACCAAAAGTCTTCGCTGCT (anti-sense), exon 2 of NR3C1 (guide AACCAAAAGUCUUCGCUGCU; RNA, backbone not given here; 5' and 3' phosphorothioate bonds)
NR3C1
  base editing outcome at the genetic locus: premature TAA stop codon
Exon 2 of NR3C1
  nuclease activity (Surveyor DNA fragmentation products): exhibited the highest activity levels

## C[C@]12C=CC(=O)C=C1CC[C@@H]1[C@@H]2[C@@H](O)C[C@@]2(C)[C@H]1CC[C@]2(O)C(=O)CO [prednisolone]
[1]
  GVHD therapy outcome / survival vs vehicle: improved outcome
[1]; listed as Prednisolone
  GVHD therapy outcome / survival vs vehicle: significantly better than vehicle control
[1]; treatment delayed until day 4
  GVHD therapy outcome: ineffective
xeno-GVHD model
  average weight: not significantly different than controls
  survival advantage: did not offer a survival advantage
xeno-GVHD model; controls 29 days
  median survival: 25 days
xeno-GVHD model; day 19
  human CD4+ and CD8+ T cells in the blood: significantly more human CD4+ and CD8+ T cells
